Measured values from ChEMBL document CHEMBL2406914 (ACS Med Chem Lett, 2013).

Tests used:
Myoglobin = target: T1, Myoglobin (Homo sapiens, UniProt P02144); test: Inhibition of myoglobin (unknown origin)-mediated arachidonic acid oxidation using [14C]AA as substrate after 3 hrs by GC/NICI/MS analysis
T1 sequence (P02144 whole entry): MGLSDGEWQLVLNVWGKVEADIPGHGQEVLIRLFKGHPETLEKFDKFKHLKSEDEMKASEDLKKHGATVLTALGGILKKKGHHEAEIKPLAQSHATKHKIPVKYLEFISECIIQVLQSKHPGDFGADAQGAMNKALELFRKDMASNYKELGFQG

[1] = target: T2, Prostaglandin G/H synthase 1 (Ovis aries, UniProt P05979); test: Inhibition of ovine COX1-mediated arachidonic acid oxidation using [14C]AA as substrate after 5 mins by GC/NICI/MS analysis
T2 sequence (P05979 whole entry): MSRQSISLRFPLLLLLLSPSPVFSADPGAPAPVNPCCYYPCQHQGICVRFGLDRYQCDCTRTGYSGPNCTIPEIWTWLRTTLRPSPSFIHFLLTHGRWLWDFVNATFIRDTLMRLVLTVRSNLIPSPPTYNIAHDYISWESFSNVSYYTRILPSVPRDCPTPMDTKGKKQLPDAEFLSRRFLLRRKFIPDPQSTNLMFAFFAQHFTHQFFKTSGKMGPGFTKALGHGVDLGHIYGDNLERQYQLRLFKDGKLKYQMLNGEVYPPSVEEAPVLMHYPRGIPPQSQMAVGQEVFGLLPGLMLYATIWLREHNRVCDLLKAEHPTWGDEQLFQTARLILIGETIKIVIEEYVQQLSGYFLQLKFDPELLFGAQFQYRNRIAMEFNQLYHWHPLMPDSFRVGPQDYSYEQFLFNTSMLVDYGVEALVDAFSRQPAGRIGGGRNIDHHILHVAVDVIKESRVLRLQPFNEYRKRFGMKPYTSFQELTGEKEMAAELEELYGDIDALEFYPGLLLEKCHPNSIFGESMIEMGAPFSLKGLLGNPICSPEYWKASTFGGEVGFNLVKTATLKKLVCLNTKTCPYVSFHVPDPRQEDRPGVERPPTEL

HepG2 = test: Cytotoxicity against human HepG2 cells assessed as intracellular ATP level after 24 hrs by luciferase reporter gene assay; assay type: cell-based; settings: HepG2, 24 h
[2] = Metabolic stability in rat liver microsomes assessed as compound remaining at 10 uM after 30 mins by LC-MS analysis; settings: human

| IC50 [1] | remaining at 0.5 h, 10 µM [2] | SMILES | IC50 (Myoglobin) | EC50 (HepG2) |
| --- | --- | --- | --- | --- |
| 198 µM | 97% | Cc1nc2c(c(C)c1O)COC(=O)N2 |  | > 5000 µM |
| > 1000 µM | 87% | Cc1nc2c(c(C)c1O)CNC(=O)N2 |  | 2960 µM |
| 451 µM | 108% | O=C1NCc2cc(O)cnc2N1 |  | 4760 µM |

| SMILES | IC50 [1] | remaining at 0.5 h, 10 µM [2] | IC50 (Myoglobin) | EC50 (HepG2) |
| --- | --- | --- | --- | --- |
| CC(=O)Nc1ccc(O)cc1 [ACETAMINOPHEN] | 372 µM |  | 2.3 µM | 594 µM |
